{
  "source": "paper PMC8271486",
  "about": "“Assessment of Antidiabetic Activity of the Shikonin by Allosteric Inhibition of Protein-Tyrosine Phosphatase 1B (PTP1B) Using State of Art: An In Silico and In Vitro Tactics” (Molecules, 2021)",
  "molecular_target": "T1, Protein tyrosine phosphatase 1B (PTP1B) (Homo sapiens, UniProt P18031)",
  "T1 construct": "gene PTPN1",
  "T1 sequence (P18031 1-435)": "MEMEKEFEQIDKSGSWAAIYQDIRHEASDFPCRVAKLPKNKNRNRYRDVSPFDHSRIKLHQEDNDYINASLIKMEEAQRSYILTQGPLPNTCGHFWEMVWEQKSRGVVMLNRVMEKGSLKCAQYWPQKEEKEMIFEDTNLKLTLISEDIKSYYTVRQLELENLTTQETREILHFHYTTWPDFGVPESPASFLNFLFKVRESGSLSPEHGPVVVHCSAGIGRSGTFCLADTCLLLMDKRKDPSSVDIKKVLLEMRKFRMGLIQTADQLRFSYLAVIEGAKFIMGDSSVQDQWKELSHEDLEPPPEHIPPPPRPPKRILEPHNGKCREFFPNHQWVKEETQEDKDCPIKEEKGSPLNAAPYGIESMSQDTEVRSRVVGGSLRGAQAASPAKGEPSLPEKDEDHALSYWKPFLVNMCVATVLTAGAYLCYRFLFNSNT",
  "assay": "pNPP hydrolysis assay ([…] nm) with human recombinant PTP1B; Dixon and Lineweaver-Burk kinetics",
  "type": "biochemical",
  "data": [
    {"smiles": "CC(C)=CC[C@@H](O)C1=CC(=O)c2c(O)ccc(O)c2C1=O", "note": "[Shikonin, 5,8-dihydroxy-2-[(1R)-1-hydroxy-4-methylpent-3-enyl] naphthalene-1,4-dione]", "values": [
      {"measurement": "IC50", "result": 15.5, "unit": "µM"}
    ]}
  ]
}
